The target of one test is recombinant MNK1 (Homo sapiens (Human), UniProt Q9BUB5). In words: MNK biochemical enzymatic assay (ADP-Glo), MNK1. More on the design: key to MNK1 IC50: IC50 values of less than 0.01 μM are labelled as “+++”; from 0.01 to 0.10 μM are labelled as “++”; from 0.1 to 10 μM are labelled as “+”; Inactive: greater than 10 μM are labelled inactive. To be noted: 10 nM MNK1, 300 μM ATP. On the procedure:
(§1) Compounds are screened for MNK inhibition using the ADP-Glo kinase assay kit (Promega, catalogue No. V9101). All kinase reactions are performed in Reaction Buffer E (15 mM HEPES pH7.4, 20 mM NaCl, 1 mM EGTA, 10 mM MgCl2, 0.1 mg/ml BGG, and 0.02% Tween-20). Final MNK1 reactions contained 10 nM recombinant MNK1 (Life Technologies, PR9138A), 100 μM MNK substrate peptide Ac-TATKSGSTTKNR-NH2 (American Peptide Company), 300 μM ATP, and varying concentrations of the inhibitory compound of interest. Final MNK2 reactions contained 3 nM recombinant MNK2 (Life Technologies, PV5607), 50 μM MNK substrate peptide Ac-TATKSGSTTKNR-NH2 (American Peptide Company), 10 μM ATP, and varying concentrations of the inhibitory compound of interest. Final DMSO concentration in each reaction is 1%.
(§2) Kinase reactions are carried out in 96-well half-area white flat-bottom polystyrene plates in a final volume of 25 μl. MNK1/2 enzymes are pre-incubated with compound and peptide substrate for 5 minutes prior to the addition of ATP. After the addition of ATP, kinase reactions are incubated at room temperature for 40 minutes. Reactions are subsequently stopped by the addition of 25 μl of ADP-Glo Reagent and incubating for an additional 40 minutes. The final luminescent signal used for kinase activity readout is produced by the addition of 45 μl of Kinase Detection Reagent (ADP-Glo kit, Promega) and incubating for 40 minutes. The luminescent signal is detected using a Victor 2 multilabel counter (Perkin Elmer) and the concentration of compound necessary to achieve inhibition of enzyme activity by 50% (IC50) is calculated using signals from an 8-point compound dilution series.

A further test addresses recombinant MNK2 (Homo sapiens (Human), UniProt Q9HBH9). In words: MNK biochemical enzymatic assay (ADP-Glo), MNK2. To be noted: 3 nM MNK2, 10 μM ATP. As for the experimental part:
as §1, §2

Another test has as its system Phosphorylated eIF4E. In words: peIF4E signaling cellular assay (CisBio HTRF). The test is classed as cell-based. As to conditions: 2 hrs incubation at 37° C. On the procedure: Phosphorylated eIF4E is assayed using the CisBio peIF4E HTRF® assay kit (CisBio, catalogue No. 64EF4PEG). Cells are plated in 96-well tissue-culture treated plate in appropriate growth medium (90 μL). Compounds (10×) are diluted using 3-fold serial dilutions in cell culture medium and added to cells. Plates are incubated for 2 hrs at 37° C. The cell supernatant is carefully removed either by aspirating supernatant or by flicking the plate. Immediately 50 μL of supplemented lysis buffer (1×) is added and incubated for at least 30 minutes at room temperature under shaking. After homogenization by pipeting up and down, 16 μL of cell lysate is transferred from the 96-well cell-culture plate to a 384-well small volume white plate. 4 μL of premixed antibody solutions (vol/vol) is prepared in the detection buffer and added. The plate is covered with a plate sealer and incubated overnight at room temperature. The fluorescence emissions at two different wavelengths are read (665 nm and 620 nm) on a Wallac Victor2. Emission ratios are converted into percent inhibitions and imported into GraphPad Prism software. […] IC50 values are determined using a nonlinear regression model available in GraphPad Prism 5.

Chain of recombinant MNK1 (Q9BUB5 whole entry): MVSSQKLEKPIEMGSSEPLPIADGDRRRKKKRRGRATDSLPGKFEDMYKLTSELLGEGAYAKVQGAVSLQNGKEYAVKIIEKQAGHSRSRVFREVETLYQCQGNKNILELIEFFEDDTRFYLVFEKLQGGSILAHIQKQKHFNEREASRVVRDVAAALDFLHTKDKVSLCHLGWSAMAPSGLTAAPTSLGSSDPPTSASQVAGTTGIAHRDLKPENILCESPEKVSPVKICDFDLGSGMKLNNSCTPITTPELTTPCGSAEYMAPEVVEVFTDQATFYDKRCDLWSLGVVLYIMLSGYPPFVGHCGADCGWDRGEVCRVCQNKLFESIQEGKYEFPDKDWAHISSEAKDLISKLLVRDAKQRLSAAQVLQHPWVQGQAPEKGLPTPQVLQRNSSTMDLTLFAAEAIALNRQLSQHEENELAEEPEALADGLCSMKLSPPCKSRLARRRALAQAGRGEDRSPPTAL
Chain of recombinant MNK2 (Q9HBH9 whole entry): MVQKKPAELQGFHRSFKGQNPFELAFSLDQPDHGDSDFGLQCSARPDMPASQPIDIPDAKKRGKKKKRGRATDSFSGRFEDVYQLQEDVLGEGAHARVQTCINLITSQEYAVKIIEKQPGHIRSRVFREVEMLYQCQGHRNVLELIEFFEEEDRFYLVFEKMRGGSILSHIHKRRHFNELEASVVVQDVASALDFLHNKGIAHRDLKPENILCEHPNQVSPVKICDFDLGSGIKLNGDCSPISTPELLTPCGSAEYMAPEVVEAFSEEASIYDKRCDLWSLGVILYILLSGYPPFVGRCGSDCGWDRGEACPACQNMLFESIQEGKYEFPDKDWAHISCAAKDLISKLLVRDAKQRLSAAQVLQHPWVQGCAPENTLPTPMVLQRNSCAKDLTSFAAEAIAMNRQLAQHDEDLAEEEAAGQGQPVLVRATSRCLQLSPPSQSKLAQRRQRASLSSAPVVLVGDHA

Consider `O=C1NC2(CCCCC2)n2c1c(Cl)cc(Nc1ncns1)c2=O` [2F, 6′-((1,2,4-thiadiazol-5-yl)amino)-8′-chloro-2′H-spiro[cyclohexane-1,3′-imidazo[1,5-a]pyridine]-1′,5′-dione], for which the IC50 at recombinant MNK1 is 10 to 100 nM; at recombinant MNK2, less than 10 nM; with Phosphorylated eIF4E it was 100 to 100000 nM.
The matching figures for `O=C1NC2(CCCCC2)n2c1c(Cl)cc(Nc1cn[nH]n1)c2=O` [compound 9, 6′-((2H-1,2,3-triazol-4-yl)amino)-8′-chloro-2′H-spiro[cyclohexane-1,3′-imidazo[1,5-a]pyridine]-1′,5′-dione]: 10 to 100 nM, less than 10 nM and 100 to 100000 nM.
`Nc1cc(Nc2cc(Cl)c3n(c2=O)C2(CCCCC2)NC3=O)ccn1` [compound 13, 6′-((2-aminopyridin-4-yl)amino)-8′-chloro-2′H-spiro[cyclohexane-1,3′-imidazo[1,5-a]pyridine]-1′,5′-dione]: the results for the IC50 on recombinant MNK2 and in the test with Phosphorylated eIF4E were 10 to 100 nM and 100 to 100000 nM, respectively.
Consider `O=C1NC2(CCCCC2)n2c1c(Cl)cc(Nc1cncs1)c2=O` [compound 5, 8′-chloro-6′-(thiazol-5-ylamino)-2′H-spiro[cyclohexane-1,3′-imidazo[1,5-a]pyridine]-1′,5′-dione], for which the IC50 is 100 to 10000 nM at recombinant MNK1 and 10 to 100 nM at recombinant MNK2.
Turning to `O=C1NC2(CCCCC2)n2c1c(Cl)cc(Nc1nncs1)c2=O` [1F, 6′-((1,3,4-thiadiazol-2-yl)amino)-8′-chloro-2′H-spiro[cyclohexane-1,3′-imidazo[1,5-a]pyridine]-1′,5′-dione], the IC50 on recombinant MNK1 was 100 to 10000 nM; at recombinant MNK2, 10 to 100 nM; with Phosphorylated eIF4E, 100 to 100000 nM.
With `Cn1ncc(Nc2cc(Cl)c3n(c2=O)C2(CCCCC2)NC3=O)n1` [compound 7, 8′-chloro-6′-((2-methyl-2H-1,2,3-triazol-4-yl)amino)-2′H-spiro[cyclohexane-1,3′-imidazo[1,5-a]pyridine]-1′,5′-dione], the half-inhibitory concentration (IC50) on recombinant MNK2 is less than 10 nM; in the test on Phosphorylated eIF4E, 100 to 100000 nM.
As to `O=C1NC2(CCCCC2)n2c1c(Cl)cc(Nc1ncn[nH]1)c2=O` [4F, 6′-((1H-1,2,4-triazol-5-yl)amino)-8′-chloro-2′H-spiro[cyclohexane-1,3′-imidazo[1,5-a]pyridine]-1′,5′-dione], the half-maximal inhibitory concentration (IC50) at recombinant MNK1 is 100 to 10000 nM; at recombinant MNK2 it was 10 to 100 nM.
`O=C1NC2(CCCCC2)n2c1c(Cl)cc(Nc1nnco1)c2=O` [compound 8, 6′-((1,3,4-oxadiazol-2-yl)amino)-8′-chloro-2′H-spiro[cyclohexane-1,3′-imidazo[1,5-a]pyridine]-1′,5′-dione]: the IC50 lay in the range of 100 to 10000 nM on recombinant MNK1, 100 to 10000 nM at recombinant MNK2 and 100 to 100000 nM with Phosphorylated eIF4E.
As to `O=C1NC2(CCCCC2)n2c1c(Cl)cc(Nc1cnsn1)c2=O` [compound 6, 6′-((1,2,5-thiadiazol-3-yl)amino)-8′-chloro-2′H-spiro[cyclohexane-1,3′-imidazo[1,5-a]pyridine]-1′,5′-dione], the half-inhibitory concentration (IC50) at recombinant MNK2 is less than 10 nM; in the test with Phosphorylated eIF4E, 100 to 100000 nM.
For `O=C1NC2(CCCCC2)n2c1c(Cl)cc(Nc1cnns1)c2=O` [compound 3, 6′-((1,2,3-thiadiazol-5-yl)amino)-8′-chloro-2′H-spiro[cyclohexane-1,3′-imidazo[1,5-a]pyridine]-1′,5′-dione], the “MNK1 IC50” value at recombinant MNK1 is “Inactive”. Moreover, the half-inhibitory concentration (IC50) lay in the range of 10 to 100 nM at recombinant MNK2 and 100 to 100000 nM in the test with Phosphorylated eIF4E.
Turning to `O=C1NC2(CCCCC2)n2c1c(Cl)cc(Nc1ncncn1)c2=O` [compound 11, 6′-((1,3,5-triazin-2-yl)amino)-8′-chloro-2′H-spiro[cyclohexane-1,3′-imidazo[1,5-a]pyridine]-1′,5′-dione], the half-maximal inhibitory concentration (IC50) on recombinant MNK2 was less than 10 nM; in the test on Phosphorylated eIF4E, 10 to 100 nM.

(Values after US10000487B2, “Heterocyclic compounds that inhibit the kinase activity of Mnk useful for treating various cancers” (eFFECTOR Therapeutics, Inc., priority 2015, dated 2018).)
